Several values for one entry are separate records, joined by “and”; a condition that tells them apart may be missing. Identical values can stand only once. Numbers after ± are expanded uncertainties.
Legend:
[1] = refractive index (Na D-line) (dimensionless); conditions: 101.33 kPa, Liquid
[2] = 101 kPa, Liquid
[3] = refractive index (Na D-line) (dimensionless); xn = mol fraction of the nth substance listed; conditions: 101 kPa, Liquid
[4] = xn = mol fraction of the nth substance listed; conditions: 101 kPa, Liquid

COc1ccccc1 [anisole]
Conditions	mass density, 288.15 K [kg/m3]	mass density, 293.15 K [kg/m3]	mass density, 298.15 K [kg/m3]	mass density, 303.15 K [kg/m3]	refractive index, 288.15 K	refractive index, 293.15 K	refractive index, 298.15 K	refractive index, 303.15 K
[1]	–	–	–	–	1.5256 ± 0.0097	1.5172 ± 0.0097 and 1.5169 ± 0.0097	1.5141 ± 0.0096	1.5117 ± 0.0096
[2]	998.44 ± 1.4	993.65 ± 1.5	989.15 ± 1.6	984.37 ± 1.6	–	–	–	–

Cc1ccccc1 [toluene] + COc1ccccc1
x2 = 0
Conditions	mass density, 288.15 K [kg/m3]	mass density, 293.15 K [kg/m3]	mass density, 298.15 K [kg/m3]	mass density, 303.15 K [kg/m3]	refractive index, 288.15 K	refractive index, 293.15 K	refractive index, 298.15 K	refractive index, 303.15 K
[3]	–	–	–	–	1.4996 ± 0.0096	1.497 ± 0.0096	1.4944 ± 0.0096	1.4918 ± 0.0096
[4]	871.41 ± 0.84	866.87 ± 0.86	862.2 ± 0.88	857.46 ± 0.9	–	–	–	–

COc1ccccc1 [anisole] + Cc1ccc(C)cc1
Conditions	mass density, 288.15 K [kg/m3]	mass density, 293.15 K [kg/m3]	mass density, 298.15 K [kg/m3]	mass density, 303.15 K [kg/m3]	refractive index, 288.15 K	refractive index, 293.15 K	refractive index, 298.15 K	refractive index, 303.15 K
[3], x1 = 0.0994	–	–	–	–	1.5007 ± 0.0096	1.4978 ± 0.0096	1.4949 ± 0.0096	1.4935 ± 0.0096
[3], x1 = 0.2471	–	–	–	–	1.5044 ± 0.0096	1.5006 ± 0.0096	1.4978 ± 0.0096	1.4963 ± 0.0096
[3], x1 = 0.3745	–	–	–	–	1.5077 ± 0.0096	1.5032 ± 0.0096	1.5004 ± 0.0096	1.4987 ± 0.0096
[3], x1 = 0.496	–	–	–	–	1.5109 ± 0.0097	1.5057 ± 0.0096	1.5029 ± 0.0096	1.5011 ± 0.0096
[3], x1 = 0.6455	–	–	–	–	1.5151 ± 0.0097	1.5089 ± 0.0096	1.5061 ± 0.0096	1.5042 ± 0.0096
[3], x1 = 0.7466	–	–	–	–	1.5179 ± 0.0097	1.5111 ± 0.0096	1.5084 ± 0.0096	1.5064 ± 0.0096
[3], x1 = 0.8972	–	–	–	–	1.5223 ± 0.0097	1.5145 ± 0.0097	1.5118 ± 0.0096	1.5097 ± 0.0096
[3], x1 = 0.949	–	–	–	–	1.5239 ± 0.0097	1.5157 ± 0.0097	1.5129 ± 0.0096	1.5107 ± 0.0096
[3], x1 = 0.9772	–	–	–	–	1.5248 ± 0.0097	1.5164 ± 0.0097	1.5136 ± 0.0096	1.5113 ± 0.0096
[3], x1 = 1	–	–	–	–	1.5256 ± 0.0098	1.5169 ± 0.0097	1.5141 ± 0.0096	1.5117 ± 0.0096
[4], x1 = 0.0994	877.53 ± 0.86	873.32 ± 0.88	869.02 ± 0.9	864.71 ± 0.91	–	–	–	–
[4], x1 = 0.2471	896.11 ± 0.8	891.85 ± 0.81	887.55 ± 0.83	883.2 ± 0.85	–	–	–	–
[4], x1 = 0.3745	912.51 ± 0.74	908.14 ± 0.76	903.84 ± 0.77	899.38 ± 0.79	–	–	–	–
[4], x1 = 0.496	928.51 ± 0.69	924.05 ± 0.7	919.74 ± 0.72	915.2 ± 0.74	–	–	–	–
[4], x1 = 0.6455	948.69 ± 0.62	944.15 ± 0.63	939.83 ± 0.65	935.26 ± 0.67	–	–	–	–
[4], x1 = 0.7466	962.63 ± 0.57	958.06 ± 0.58	953.71 ± 0.6	949.14 ± 0.62	–	–	–	–
[4], x1 = 0.8972	983.79 ± 0.49	979.14 ± 0.51	974.73 ± 0.53	970.18 ± 0.55	–	–	–	–
[4], x1 = 0.949	991.13 ± 0.47	986.45 ± 0.49	981.99 ± 0.5	977.4 ± 0.52	–	–	–	–
[4], x1 = 0.9772	995.17 ± 0.46	990.43 ± 0.47	985.95 ± 0.49	981.34 ± 0.51	–	–	–	–
[4], x1 = 1	998.44 ± 0.45	993.65 ± 0.46	989.15 ± 0.48	984.37 ± 0.5	–	–	–	–

Cc1ccccc1C [1,2-dimethylbenzene]
Conditions	mass density, 288.15 K [kg/m3]	mass density, 293.15 K [kg/m3]	mass density, 298.15 K [kg/m3]	mass density, 303.15 K [kg/m3]	refractive index, 288.15 K	refractive index, 293.15 K	refractive index, 298.15 K	refractive index, 303.15 K
[1]	–	–	–	–	1.5072 ± 0.0096	1.5047 ± 0.0096	1.5018 ± 0.0096	1.5 ± 0.0096
[2]	883.29 ± 0.91	879.08 ± 0.92	875.53 ± 0.94	870.73 ± 0.95	–	–	–	–

Cc1ccc(C)cc1 [1,4-dimethylbenzene] + COc1ccccc1
x2 = 0
Conditions	mass density, 288.15 K [kg/m3]	mass density, 293.15 K [kg/m3]	mass density, 298.15 K [kg/m3]	mass density, 303.15 K [kg/m3]	refractive index, 288.15 K	refractive index, 293.15 K	refractive index, 298.15 K	refractive index, 303.15 K
[3]	–	–	–	–	1.4983 ± 0.0096	1.4958 ± 0.0096	1.4929 ± 0.0096	1.4915 ± 0.0096
[4]	865.25 ± 0.91	860.92 ± 0.93	856.62 ± 0.94	852.25 ± 0.96	–	–	–	–

c1ccccc1 [benzene]
Conditions	mass density, 288.15 K [kg/m3]	mass density, 293.15 K [kg/m3]	mass density, 298.15 K [kg/m3]	mass density, 303.15 K [kg/m3]	refractive index, 288.15 K	refractive index, 293.15 K	refractive index, 298.15 K	refractive index, 303.15 K
[1]	–	–	–	–	1.505 ± 0.0096	1.5011 ± 0.0096	1.4979 ± 0.0097	1.4849 ± 0.0099
[2]	884.11 ± 3.2	876.53 ± 3.3	873.6 ± 3.4	868.23 ± 3.5	–	–	–	–

From the NIST ThermoML archive (doi:10.1016/j.jct.2006.02.001)
